Results: ChEMBL document CHEMBL3286179, “Discovery of the Fibrinolysis Inhibitor AZD6564, Acting via Interference of a Protein-Protein Interaction” (ACS Med Chem Lett, 2014)

Assays:
[1] = Dissociation constant, pKa of the compound; format: physicochemical
[2] = Drug metabolism in human hepatocytes assessed as glucuronidation on isoxazolone ring; format: ADME, cell-based, Hepatocyte
[3] = Total clearance in rat at 5 umol/kg, iv and 20 umol/kg, po; format: ADME, organism-based; conditions: in vivo
[4] = Renal clearance in rat at 5 umol/kg, iv and 20 umol/kg, po; format: ADME, organism-based, Kidney; conditions: in vivo
[5] = Oral bioavailability in rat at 20 umol/kg; format: ADME, organism-based; conditions: in vivo, at 20 µmol/kg
[6] = Total clearance in dog at 3 umol/kg, iv and 6 umol/kg, po; format: ADME, organism-based, Canis lupus familiaris; conditions: in vivo
[7] = Renal clearance in dog at 3 umol/kg, iv and 6 umol/kg, po; format: ADME, organism-based, Canis lupus familiaris, Kidney; conditions: in vivo
[8] = Oral bioavailability in dog at 6 umol/kg; format: ADME, organism-based, Canis lupus familiaris; conditions: in vivo, at 6 µmol/kg
[9] = Drug excretion in rat urine; format: ADME; conditions: in vivo
[10] = Drug excretion in dog urine; format: ADME, Canis lupus familiaris; conditions: read-out: Drug excretion
Hepatocyte = assay: Metabolic stability in human hepatocytes measured per 10^6 cells; format: ADME, cell-based
[11] = Metabolic stability in human liver microsomes; format: ADME; conditions: read-out: Stability

Compound | pKa [1] | Drug metabolism [2] | clearance [3] [mL/min/kg] | CL renal [4] [mL/min/kg] | bioavailability [5] [%] | clearance [6] [mL/min/kg] | CL renal [7] [mL/min/kg] | bioavailability [8] [%] | Drug excretion [9] [%ID] | dose excreted [10] [%] | Stability (Hepatocyte) [µL/min] | microsomal CLint [11] [µL/min/mg]
O=c1cc([C@@H]2CCN[C@H](Cc3ccccc3)C2)o[nH]1 | 4.4 | – | – | – | – | – | – | – | – | – | – | –
CC(C)(C)C[C@H]1C[C@@H](c2cc(=O)[nH]o2)CCN1 | – | metabolite_detected | 13 | 6 | 39 | 1.1 | 0.8 | 53 | 45 | 70 | < 1 | < 5
O=c1cc([C@H]2CCN[C@@H](CCc3ccccc3)C2)o[nH]1 | – | metabolite_detected | 24 | 6 | 19 | 1.8 | 0.12 | 59 | 25 | – | < 1 | < 5

Now from value to compound:

pKa [1] | Drug metabolism [2] | clearance [3] [mL/min/kg] | CL renal [4] [mL/min/kg] | bioavailability [5] [%] | clearance [6] [mL/min/kg] | CL renal [7] [mL/min/kg] | bioavailability [8] [%] | Drug excretion [9] [%ID] | dose excreted [10] [%] | Stability (Hepatocyte) [µL/min] | microsomal CLint [11] [µL/min/mg] | Compound
4.9 | – | – | – | – | – | – | – | – | – | – | – | O=c1cc([C@H]2CCN[C@H](Cc3ccccc3)C2)o[nH]1
– | metabolite_detected | 46 | 11 | 33 | 2.9 | 0.2 | 73 | 25 | 7 | < 1 | < 5 | O=c1cc([C@H]2CCN[C@@H](Cc3ccccc3)C2)o[nH]1
